The text below walks through data of patent US10208040B2, “Fused imidazo-piperidine JAK inhibitors” (THERAVANCE BIOPHARMA R&D IP, LLC, priority 2017, dated 2019).

The term Ki denotes the dissociation constant of the complex between target and ligand, obtained from inhibition or displacement. For orientation: IC50 means the concentration that inhibits the measured activity by half. Read a low IC50 as inhibition by little substance.

For data set [1], the target named is JAK1 (Homo sapiens (Human), UniProt P23458). As to the kind of experiment: Biochemical JAK kinase assay (LanthaScreen), JAK1. As for the experimental part:
(§1) A panel of four LanthaScreen JAK biochemical assays (JAK1, 2, 3 and Tyk2) were carried in a common kinase reaction buffer (50 mM HEPES, pH 7.5, 0.01% Brij-35, 10 mM MgCl2, and 1 mM EGTA). Recombinant GST-tagged JAK enzymes and a GFP-tagged STAT1 peptide substrate were obtained from Life Technologies.
(§2) Serially diluted compounds were pre-incubated with each of the four JAK enzymes and the substrate in white 384-well microplates (Corning) at ambient temperature for 1 h. ATP was subsequently added to initiate the kinase reactions in 10 μL total volume, with 1% DMSO. […] The plates were allowed to incubate at ambient temperature for 1 h before being read on the EnVision reader (Perkin Elmer).
(§3) For dose-response analysis, percent inhibition data were plotted vs. compound concentrations, and IC50 values were determined from a 4-parameter robust fit model with the Prism software (GraphPad Software). Results were expressed as pIC50 (negative logarithm of IC50) and subsequently converted to pKi (negative logarithm of dissociation constant, Ki) using the Cheng-Prusoff equation.

The target in data set [2] is JAK2 (Homo sapiens (Human), UniProt O60674). Put plainly: Biochemical JAK kinase assay (LanthaScreen), JAK2. The procedure:
as §1, §2, §3

The target of data set [3] is JAK3 (Homo sapiens (Human), UniProt P52333). Put plainly: Biochemical JAK kinase assay (LanthaScreen), JAK3. The procedure:
as §1, §2, §3
Background: Time-resolved FRET reads energy transfer from a long-lived donor to a nearby acceptor.

Data set [4] has as its target Tyk2 (Homo sapiens (Human), UniProt P29597). As to the kind of experiment: Biochemical JAK kinase assay (LanthaScreen), Tyk2. As for the experimental part: as §1, §2, §3
Data set [5] relates to IL-13 induced STAT6 phosphorylation in BEAS-2B human lung epithelial cells. As to the kind of experiment: Cellular JAKI potency assay (AlphaScreen, BEAS-2B). It is filed as cell-based. As to conditions: BEAS-2B cells. The procedure: The AlphaScreen JAKI cellular potency assay was carried out by measuring interleukin-13 (IL-13, R&D Systems) induced STAT6 phosphorylation in BEAS-2B human lung epithelial cells (ATCC). The anti-STAT6 antibody (Cell Signaling Technologies) was conjugated to AlphaScreen acceptor beads (Perkin Elmer), while the anti-pSTAT6 (pTyr641) antibody (Cell Signaling Technologies) was biotinylated using EZ-Link Sulfo-NHS-Biotin (Thermo Scientific).
BEAS-2B cells were grown at 37° C. in a 5% CO2 humidified incubator in 50% DMEM/50% F-12 medium (Life Technologies) supplemented with 10% FBS (Hyclone), 100 U/mL penicillin, 100 μg/mL streptomycin (Life Technologies), and 2 mM GlutaMAX (Life Technologies). On day 1 of the assay, cells were seeded at a 7,500 cells/well density in white poly-D-lysine-coated 384-well plates (Corning) with 25 μL medium, and were allowed to adhere overnight in the incubator. On day 2 of the assay, the medium was removed and replaced with 12 μL of assay buffer (Hank's Balanced Salt Solution/HBSS, 25 mM HEPES, and 1 mg/ml bovine serum albumin/BSA) containing dose-responses of test compounds. Compounds were serially diluted in DMSO and then diluted another 1000-fold in media to bring the final DMSO concentration to 0.1%. Cells were incubated with test compounds at 37° C. for 1 h, and followed by the addition of 12 μl of pre-warmed IL-13 (80 ng/mL in assay buffer) for stimulation. After incubating at 37° C. for 30 min, the assay buffer (containing compound and IL-13) was removed, and 10 μL of cell lysis buffer (25 mM HEPES, 0.1% SDS, 1% NP-40, 5 mM MgCl2, 1.3 mM EDTA, 1 mM EGTA, and supplement with Complete Ultra mini protease inhibitors and PhosSTOP from Roche Diagnostics). The plates were shaken at ambient temperature for 30 min before the addition of detection reagents. A mixture of biotin-anti-pSTAT6 and anti-STAT6 conjugated acceptor beads was added first and incubated at ambient temperature for 2 h, followed by the addition of streptavidin conjugated donor beads (Perkin Elmer). After a minimum of 2 h incubation, the assay plates were read on the EnVision plate reader. AlphaScreen luminescence signals were recorded and utilized to calculate the percent inhibition values based on DMSO and background controls.
For dose-response analysis, percent inhibition data were plotted vs. compound concentrations, and IC50 values were determined from a 4-parameter robust fit model with the Prism software. Results may also be expressed as the negative logarithm of the IC50 value, pIC50.
Test compounds having a lower IC50 value or higher pIC50 value in this assay show greater inhibition of IL-13 induced STAT6 phosphorylation.

In data set [6] the test system is IL-13 induced pSTAT6 in lung tissue. Put plainly: Murine model of IL-13 induced pSTAT6 induction in lung tissue. It is filed as in vivo. As to conditions: mouse lung, oral aspiration 1 mg/mL 50 μL, IL-13 challenge 4 h post dose, pSTAT6 at 5 hours. The procedure: IL-13 is an important cytokine underlying the pathophysiology of asthma (Kudlacz et al. Eur. J. Pharmacol, 2008, 582, 154-161). IL-13 binds to cell surface receptors activating members of the Janus family of kinases (JAK) which then phosphorylate STAT6 and subsequently activates further transcription pathways. In the described model, a dose of IL-13 was delivered locally into the lungs of mice to induce the phosphorylation of STAT6 (pSTAT6) which is then measured as the endpoint.
Adult balb/c mice from Harlan were used in the assay. On the day of study, animals were lightly anesthetized with isoflurane and administered either vehicle or test compound (1 mg/mL, 50 μL total volume over several breaths) via oral aspiration. Animals were placed in lateral recumbency post dose and monitored for full recovery from anesthesia before being returned to their home cage. Four hours later, animals were once again briefly anesthetized and challenged with either vehicle or IL-13 (0.03 μg total dose delivered, 50 μL total volume) via oral aspiration before being monitored for recovery from anesthesia and returned to their home cage. One hour after vehicle or IL-13 administration, lungs were collected for both pSTAT6 detection using an anti-pSTAT6 ELISA (rabbit mAb capture/coating antibody; mouse mAb detection/report antibody: anti-pSTAT6-pY641; secondary antibody: anti-mouse IgG-HRP) and analyzed for total drug concentration as described above in Assay 3.
Selected compounds of the invention were tested in the assay. Activity in the model is evidenced by a decrease in the level of pSTAT6 present in the lungs of treated animals at 5 hours compared to the vehicle treated, IL-13 challenged control animals. The difference between the control animals which were vehicle-treated, IL-13 challenged and the control animals which were vehicle-treated, vehicle challenged dictated the 0% and 100% inhibitory effect, respectively, in any given experiment.

Data set [7] can be described thus: Pharmacokinetics in plasma and lung in mouse. The settings on record: oral aspiration, ratio of lung exposure to plasma exposure. It is filed as in vivo.
Data set [8] relates to alternaria-induced BALF eosinophils. As to the kind of experiment: Murine model of Alternaria alternata-induced eosinophilic inflammation of the lung. It is filed as in vivo. The settings on record: mouse, oropharyngeal aspiration, 48 h after alternaria challenge, maximum statistically significant percent inhibition. As for the experimental part: Airway eosinophilia is a hallmark of human asthma. Alternaria alternata is a fungal aeroallergen that can exacerbate asthma in humans and induces eosinophilic inflammation in the lungs of mice (Havaux et al. Clin Exp Immunol. 2005 February; 139(2):179-88).
Seven- to nine-week old male C57 mice from Taconic were used in the study. On the day of study, animals were lightly anesthetized with isoflurane and administered either vehicle or test compound (0.03-1.0 mg/mL, 50 μL total volume over several breaths) via oropharyngeal aspiration. Animals were placed in lateral recumbency post dose and monitored for full recovery from anesthesia before being returned to their home cage. One hour later, animals were once again briefly anesthetized and challenged with either vehicle or alternaria extract (200 ug total extract delivered, 50 μL total volume) via oropharyngeal aspiration before being monitored for recovery from anesthesia and returned to their home cage. Forty-eight hours after alternaria administration, bronchoalveolar lavage fluid (BALF) was collected and eosinophils were counted in the BALF using the Advia 120 Hematology System (Siemens).
Activity in the model is evidenced by a decrease in the level of eosinophils present in the BALF of treated animals at forty-eight hours compared to the vehicle treated, alternaria challenged control animals. Data are expressed as percent inhibition of the vehicle treated, alternaria challenged BALF eosinophils response. To calculate percent inhibition, the number of BALF eosinophils for each condition is converted to percent of the average vehicle treated, alternaria challenged BALF eosinophils and subtracted from one-hundred percent.

Chain of JAK1 (P23458 whole entry): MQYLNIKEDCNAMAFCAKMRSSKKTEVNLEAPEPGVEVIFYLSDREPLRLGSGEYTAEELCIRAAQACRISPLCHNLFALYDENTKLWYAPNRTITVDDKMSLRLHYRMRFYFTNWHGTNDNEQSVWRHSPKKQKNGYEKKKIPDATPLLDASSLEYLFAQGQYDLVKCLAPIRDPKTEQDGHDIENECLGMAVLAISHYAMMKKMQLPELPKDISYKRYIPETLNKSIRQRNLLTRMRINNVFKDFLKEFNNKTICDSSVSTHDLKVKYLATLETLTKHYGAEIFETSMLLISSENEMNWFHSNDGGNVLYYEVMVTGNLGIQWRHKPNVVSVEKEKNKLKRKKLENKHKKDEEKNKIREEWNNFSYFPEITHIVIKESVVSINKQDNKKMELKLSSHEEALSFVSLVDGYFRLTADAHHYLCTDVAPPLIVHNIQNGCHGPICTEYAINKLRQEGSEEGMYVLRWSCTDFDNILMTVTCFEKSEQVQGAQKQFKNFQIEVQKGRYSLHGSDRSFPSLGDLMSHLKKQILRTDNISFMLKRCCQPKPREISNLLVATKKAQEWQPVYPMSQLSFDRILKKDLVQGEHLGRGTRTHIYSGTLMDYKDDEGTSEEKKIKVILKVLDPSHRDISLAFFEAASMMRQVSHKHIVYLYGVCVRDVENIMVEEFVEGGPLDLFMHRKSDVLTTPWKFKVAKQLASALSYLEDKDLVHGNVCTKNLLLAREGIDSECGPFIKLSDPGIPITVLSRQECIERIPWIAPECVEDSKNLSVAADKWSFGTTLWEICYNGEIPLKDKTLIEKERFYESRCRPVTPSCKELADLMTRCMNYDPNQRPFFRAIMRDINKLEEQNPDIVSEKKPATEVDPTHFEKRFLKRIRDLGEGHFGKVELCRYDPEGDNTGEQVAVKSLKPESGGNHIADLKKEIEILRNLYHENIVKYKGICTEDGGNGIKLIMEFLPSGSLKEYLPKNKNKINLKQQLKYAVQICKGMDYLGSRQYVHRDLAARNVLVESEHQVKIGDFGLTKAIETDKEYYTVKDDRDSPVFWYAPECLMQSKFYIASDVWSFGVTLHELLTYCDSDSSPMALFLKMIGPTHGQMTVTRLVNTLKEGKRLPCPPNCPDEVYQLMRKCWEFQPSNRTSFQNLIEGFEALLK
Chain of JAK3 (P52333 whole entry): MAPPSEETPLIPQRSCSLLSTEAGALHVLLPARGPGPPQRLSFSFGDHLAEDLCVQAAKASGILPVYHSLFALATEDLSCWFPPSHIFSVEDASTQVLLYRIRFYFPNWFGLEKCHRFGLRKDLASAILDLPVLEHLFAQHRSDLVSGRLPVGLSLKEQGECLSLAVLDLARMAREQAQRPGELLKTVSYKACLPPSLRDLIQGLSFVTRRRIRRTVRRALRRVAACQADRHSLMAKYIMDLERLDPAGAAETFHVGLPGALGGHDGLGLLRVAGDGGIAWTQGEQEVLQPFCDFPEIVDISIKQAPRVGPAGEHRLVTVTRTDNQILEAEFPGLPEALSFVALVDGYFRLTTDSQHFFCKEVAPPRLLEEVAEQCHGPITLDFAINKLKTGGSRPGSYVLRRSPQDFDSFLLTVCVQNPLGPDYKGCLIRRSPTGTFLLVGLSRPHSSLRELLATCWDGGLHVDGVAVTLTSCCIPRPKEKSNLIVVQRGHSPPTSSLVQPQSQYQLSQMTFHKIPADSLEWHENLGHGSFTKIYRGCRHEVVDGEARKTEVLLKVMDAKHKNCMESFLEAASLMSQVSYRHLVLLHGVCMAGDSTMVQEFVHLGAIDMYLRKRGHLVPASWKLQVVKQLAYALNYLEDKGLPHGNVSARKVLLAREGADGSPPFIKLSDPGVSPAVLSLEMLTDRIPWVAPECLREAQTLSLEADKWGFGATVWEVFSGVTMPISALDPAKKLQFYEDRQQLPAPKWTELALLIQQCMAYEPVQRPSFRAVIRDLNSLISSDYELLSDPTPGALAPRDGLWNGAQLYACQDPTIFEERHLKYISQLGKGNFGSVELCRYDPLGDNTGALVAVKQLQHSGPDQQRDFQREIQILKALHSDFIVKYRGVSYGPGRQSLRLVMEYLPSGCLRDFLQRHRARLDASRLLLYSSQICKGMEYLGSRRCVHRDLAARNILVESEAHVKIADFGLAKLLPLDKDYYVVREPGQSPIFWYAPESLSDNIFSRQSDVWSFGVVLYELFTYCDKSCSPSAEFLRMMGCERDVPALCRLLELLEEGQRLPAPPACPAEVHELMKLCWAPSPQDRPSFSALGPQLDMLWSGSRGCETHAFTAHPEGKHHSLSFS
Chain of Tyk2 (P29597 whole entry): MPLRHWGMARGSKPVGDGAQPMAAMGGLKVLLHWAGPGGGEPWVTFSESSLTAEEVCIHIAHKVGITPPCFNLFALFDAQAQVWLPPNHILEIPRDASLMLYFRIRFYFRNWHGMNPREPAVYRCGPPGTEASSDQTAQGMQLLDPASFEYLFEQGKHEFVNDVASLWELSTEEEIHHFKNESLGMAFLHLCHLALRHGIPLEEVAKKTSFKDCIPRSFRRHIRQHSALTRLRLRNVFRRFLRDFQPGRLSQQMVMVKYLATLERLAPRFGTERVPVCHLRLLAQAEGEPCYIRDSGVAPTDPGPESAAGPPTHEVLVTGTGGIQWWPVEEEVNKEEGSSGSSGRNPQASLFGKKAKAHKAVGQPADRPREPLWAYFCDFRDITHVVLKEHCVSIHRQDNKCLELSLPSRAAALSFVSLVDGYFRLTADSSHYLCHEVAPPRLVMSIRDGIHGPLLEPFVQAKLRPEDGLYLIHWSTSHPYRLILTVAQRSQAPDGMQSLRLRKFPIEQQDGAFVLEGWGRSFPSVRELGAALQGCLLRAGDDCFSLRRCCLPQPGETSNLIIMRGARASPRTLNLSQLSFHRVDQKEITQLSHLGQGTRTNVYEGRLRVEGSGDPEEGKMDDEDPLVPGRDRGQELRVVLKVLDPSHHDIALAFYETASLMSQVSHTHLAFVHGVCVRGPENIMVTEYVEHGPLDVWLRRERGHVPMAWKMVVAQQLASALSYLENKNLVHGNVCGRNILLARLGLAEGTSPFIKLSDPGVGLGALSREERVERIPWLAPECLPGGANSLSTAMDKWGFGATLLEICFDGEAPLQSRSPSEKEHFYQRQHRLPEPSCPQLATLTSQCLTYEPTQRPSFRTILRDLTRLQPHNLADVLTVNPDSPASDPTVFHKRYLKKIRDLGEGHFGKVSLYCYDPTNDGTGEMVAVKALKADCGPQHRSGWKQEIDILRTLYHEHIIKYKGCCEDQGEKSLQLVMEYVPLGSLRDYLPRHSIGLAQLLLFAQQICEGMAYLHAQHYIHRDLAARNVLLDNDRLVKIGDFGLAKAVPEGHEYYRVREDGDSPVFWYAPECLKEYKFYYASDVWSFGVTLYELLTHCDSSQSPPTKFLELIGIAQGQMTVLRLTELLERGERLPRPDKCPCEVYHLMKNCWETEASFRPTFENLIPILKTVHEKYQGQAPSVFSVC
Chain of JAK2 (O60674 whole entry): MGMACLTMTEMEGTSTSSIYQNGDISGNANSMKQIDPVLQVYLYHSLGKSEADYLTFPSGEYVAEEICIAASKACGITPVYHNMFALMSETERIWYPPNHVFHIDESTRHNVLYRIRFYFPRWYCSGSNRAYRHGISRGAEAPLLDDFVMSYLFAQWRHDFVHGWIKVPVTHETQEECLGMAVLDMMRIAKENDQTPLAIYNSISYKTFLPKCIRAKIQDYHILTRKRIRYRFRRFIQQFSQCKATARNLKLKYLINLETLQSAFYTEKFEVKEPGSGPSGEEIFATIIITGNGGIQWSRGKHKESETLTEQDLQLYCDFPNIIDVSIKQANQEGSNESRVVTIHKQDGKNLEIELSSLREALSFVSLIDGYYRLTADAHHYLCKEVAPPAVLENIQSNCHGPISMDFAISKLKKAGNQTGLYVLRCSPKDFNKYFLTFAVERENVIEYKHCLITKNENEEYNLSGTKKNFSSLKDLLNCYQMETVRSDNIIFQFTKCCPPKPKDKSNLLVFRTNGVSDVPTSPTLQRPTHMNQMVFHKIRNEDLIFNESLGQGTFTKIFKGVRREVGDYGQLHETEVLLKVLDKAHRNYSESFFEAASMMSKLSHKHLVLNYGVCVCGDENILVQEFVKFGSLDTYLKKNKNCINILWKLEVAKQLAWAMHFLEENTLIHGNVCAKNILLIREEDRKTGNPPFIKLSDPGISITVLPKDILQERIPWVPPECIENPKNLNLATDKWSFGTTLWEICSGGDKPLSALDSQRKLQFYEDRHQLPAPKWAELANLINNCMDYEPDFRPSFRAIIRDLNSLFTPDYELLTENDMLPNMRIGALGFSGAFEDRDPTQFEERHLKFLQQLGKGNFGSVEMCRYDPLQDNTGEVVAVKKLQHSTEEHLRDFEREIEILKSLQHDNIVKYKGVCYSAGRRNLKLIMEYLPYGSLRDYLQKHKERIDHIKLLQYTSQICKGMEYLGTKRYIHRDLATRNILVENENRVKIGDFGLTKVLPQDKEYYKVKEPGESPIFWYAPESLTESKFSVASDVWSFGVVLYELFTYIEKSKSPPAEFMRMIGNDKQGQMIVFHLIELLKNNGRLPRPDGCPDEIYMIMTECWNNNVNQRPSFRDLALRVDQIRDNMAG

`CCc1cc(O)c(F)cc1-c1ccc2c(-c3nc4c([nH]3)CNC(C(=O)N3CCN(C(C)C)CC3)C4)n[nH]c2c1` (centres unmarked) [Example 1-2]: the Ki in data set [1] came out at 0.05 nM; in data set [2], 0.03 nM; in data set [3], 0.16 nM; in data set [4], 0.08 nM. The compound also showed an IC50 in data set [5] of 7.8 nM.

As for `CCc1cc(O)c(F)cc1-c1ccc2c(-c3nc4c([nH]3)CN(C)C(C(=O)N3CCN(C(C)C)CC3)C4)n[nH]c2c1` (centres unmarked) [Example 1-12], inhibition in data set [5] was half-maximal at 5.9 nM (IC50).

The compound `CCc1cc(O)c(F)cc1-c1ccc2c(-c3nc4c([nH]3)CN(C)[C@H](C(=O)N3CCN(C)C[C@@H]3C)C4)n[nH]c2c1` [Example 2-15] displayed an IC50 in data set [5] of 4 nM. Also, in data set [6], the “pSTAT6 inhibition Assay 4” value is “B (B represents between 40% and 60% inhibition)”.

On to `CCc1cc(O)c(F)cc1-c1ccc2c(-c3nc4c([nH]3)CN(C(C)C)[C@H](C(=O)N3CCCN(C)CC3)C4)n[nH]c2c1` [Example 5, (S)-(2-(6-(2-ethyl-5-fluoro-4-hydroxyphenyl)-1H-indazol-3-yl)-5-isopropyl-4,5,6,7-tetrahydro-3H-imidazo[4,5-c]pyridin-6-yl)(4-methyl-1,4-diazepan-1-yl)methanone], for which the values for the inhibitory constant (Ki) in data set [1] and in data set [3] were 0.08 nM and 0.2 nM, respectively. The compound also showed an IC50 in data set [5] of 6.5 nM. Moreover, the “Lung to Plasma ratio Assay 3” value in data set [7] was “B (B denotes a ratio between 50 and 100)”. In addition, the “pSTAT6 inhibition Assay 4” value in data set [6] is “B (B represents between 40% and 60% inhibition)”.

In turn, `CCc1cc(O)c(F)cc1-c1ccc2c(-c3nc4c([nH]3)CN(C)[C@H](C(=O)N3CCN(CCO)C[C@H]3C)C4)n[nH]c2c1` [Example 6, ((S)-2-(6-(2-ethyl-5-fluoro-4-hydroxyphenyl)-1H-indazol-3-yl)-5-methyl-4,5,6,7-tetrahydro-3H-imidazo[4,5-c]pyridin-6-yl)((R)-4-(2-hydroxyethyl)-2-methyl-piperazin-1-yl)methanone] showed a Ki in data set [1] of 0.1 nM. For the same compound, in data set [5], the IC50 is 4.2 nM. In addition, in data set [6], the “pSTAT6 inhibition Assay 4” value was “B (B represents between 40% and 60% inhibition)”. Further, in data set [8], the “Percent Inhibition of Alternaria-induced BALF Eosinophils” value was 73.

With `CCCN1Cc2[nH]c(-c3n[nH]c4cc(-c5cc(F)c(O)cc5CC)ccc34)nc2C[C@H]1C(=O)N1CCN(CCO)CC1` [Example 7, (S)-(2-(6-(2-ethyl-5-fluoro-4-hydroxyphenyl)-1H-indazol-3-yl)-5-propyl-4,5,6,7-tetrahydro-3H-imidazo[4,5-c]pyridin-6-yl)(4-(2-hydroxyethyl)piperazin-1-yl)methanone], the inhibition constant Ki in data set [1] stood at 0.06 nM. The compound also gave an IC50 in data set [5] of 5.4 nM. In addition, the “pSTAT6 inhibition Assay 4” value in data set [6] was “B (B represents between 40% and 60% inhibition)”. For the same compound, the “Percent Inhibition of Alternaria-induced BALF Eosinophils” value in data set [8] turned out to be 91.

In the case of `CCCN1Cc2[nH]c(-c3n[nH]c4cc(-c5cc(F)c(O)cc5CC)ccc34)nc2C[C@@H]1C(=O)N1CC[C@H](N(C)C)C1` [Example 9-21], the Ki in data set [1] was 0.06 nM; in data set [2] it was 0.03 nM; in data set [4], 1 nM. The compound also came in with an IC50 in data set [5] of 4 nM. Besides, in data set [6], the “pSTAT6 inhibition Assay 4” value was “B (B represents between 40% and 60% inhibition)”.

`CCc1cc(O)c(F)cc1-c1ccc2c(-c3nc4c([nH]3)CN(CC)C(C(=O)N(C)CCN(CC)CC)C4)n[nH]c2c1` (centres unmarked) [Example 12-8]: the “pSTAT6 inhibition Assay 4” value in data set [6] was “A (A represents between 60% and 80% inhibition)”.

As for `CCc1cc(O)c(F)cc1-c1ccc2c(-c3nc4c([nH]3)CN(CC)[C@@H](C(=O)N(C)CCN(CC)CC)C4)n[nH]c2c1` [Example 12-14, (R)—N-(2-(diethylamino)ethyl)-5-ethyl-2-(6-(2-ethyl-5-fluoro-4-hydroxyphenyl)-1H-indazol-3-yl)-N-methyl-4,5,6,7-tetrahydro-3H-imidazo[4,5-c]pyridine-6-carboxamide], the results for the Ki in data set [1] and in data set [3] were 0.06 nM and 0.2 nM, respectively. The IC50 in data set [5] was found to be 3.3 nM. Further, the “Lung to Plasma ratio Assay 3” value in data set [7] is “B (B denotes a ratio between 50 and 100)”. Besides, the “pSTAT6 inhibition Assay 4” value in data set [6] is “B (B represents between 40% and 60% inhibition)”.

For the compound `CCCN1Cc2[nH]c(-c3n[nH]c4cc(-c5cc(F)c(O)cc5CC)ccc34)nc2CC1C(=O)N(C)C1CCN(C)CC1` (centres unmarked) [Example 13-2], in data set [7], the “Lung to Plasma ratio Assay 3” value is reported as “A (A denotes a ratio 100-200)”. In data set [6], the “pSTAT6 inhibition Assay 4” value was “A (A represents between 60% and 80% inhibition)”.

In the case of `CCCN1Cc2[nH]c(-c3n[nH]c4cc(-c5cc(F)c(O)cc5CC)ccc34)nc2CC1C(=O)N(C)C1CCN(C)CC1` (centres unmarked) [Example 13-5], the “Lung to Plasma ratio Assay 3” value in data set [7] is given as “A (A denotes a ratio 100-200)”. Also, the “pSTAT6 inhibition Assay 4” value in data set [6] is “C (C represents between 25% and 40% inhibition)”.

For `CCCN1Cc2[nH]c(-c3n[nH]c4cc(-c5cc(F)c(O)cc5CC)ccc34)nc2CC1C(=O)N(C)C1CCN(C)CC1` (centres unmarked) [Example 13-6], in data set [7], the “Lung to Plasma ratio Assay 3” value is “B (B denotes a ratio between 50 and 100)”. In addition, the “pSTAT6 inhibition Assay 4” value in data set [6] was “B (B represents between 40% and 60% inhibition)”.
